In patent US5912258A, “Thiadiazoleamide derivative and anti-ulcer drug” (Shiseido Co., Ltd., priority 1998, dated 1999):

Tests used:
Slc:ICR mice = tested on: Slc:ICR mice; parameters: species or system Male Slc:ICR mice; settings: mouse, in vivo
Procedure: AT: Single Dose Toxicity Pretest
Male Slc:ICR mice (5-week-old) were used. Each group has 3 to 5 mice and each mouse was fasted, but allowed free access to water, for 4 to 5 hours from 9 a.m. in the test day. Then, 2,000 mg/10 ml/kg of the sample compound dissolved or suspended in an aqueous solution of 0.5% sodium carboxymethylcellulose was orally administered thereto. To a control, only the vehicle was administered. […] The body weight was measured before and after the fasting as well as at the same time everyday. The dead animals were immediately subjected to autopsy and their organs were observed by naked eyes. Also, the living animals were sacrificed with ether or carbon dioxide one week after the administration and then their organs were observed by naked eyes.
The toxicity at the single dose of 2,000 mg/kg of the sample compound was expressed as being classified into 5 levels.
5: Mortality rate is 0%; no toxicity is found at all both in behavior and organs.
4: Mortality rate is 0%; while no toxicity is found in organs, slight toxicity is observed in behavior and body weight increase.
3: While there is a dead animal (though not all the animals are dead), no toxicity is found in organs.
2: Regardless of whether there is a dead animal or not, toxicity is found in organs.
1: All the animals are dead.

[1] = tested on: gastric corpus mucosa cells; assay: MTT: Cell Damaging and Protecting Effect Test; format: cell-based, male Japanese White rabbit; settings: rabbit gastric mucosa cells, 10^-4 M, 4 hours; smaller value is better; 100 µM
Source text: MTT: Cell Damaging and Protecting Effect Test
It is confirmed that there is no toxicity in cell level. Those having toxicity in cell level are inappropriate as an anti-ulcer drug.
A male Japanese White rabbit (2.5 to 3 kg) was anesthetized to death by Nembutal™ and, immediately thereafter, its stomach was removed. The greater curvature of the stomach was incised so as to remove the stomach contents therefrom. After the mucosal surface was washed with HBSS (Hank's Balanced Salt Solution), the stomach in ice-cooled HBSS was transferred to a laboratory. Then, after the pyloric antrum was removed, the gastric corpus mucosa was separated by a spatula and then minced into 2 to 3 mm pieces in BME (Basal Medium Eagle). Thereafter, these pieces were shaken at 120 to 130 cycles/minute for 15 minutes at 37° C. in BME 60 ml containing 280 U/ml of dispase and 30 to 50 U/mil of collagenase. Here, the concentration of collagenase was appropriately changed for each lot in view of the state of cells. The pieces were washed twice with EBSS (Earle's Balanced Salt Solution) containing 1 mM of EDTA and then shaken in MEM (Minimum Essential Medium) containing 1 mM of EDTA at 37° C. for 5 minutes. Subsequently, they were shaken in the dispase and collagenase having the same concentrations as those mentioned above for 15 minutes so as to remove the supernatant and then further shaken at 37° C. for 50 to 60 minutes at 120 to 130 cycles/minute. Then, after being washed twice with HBSS, Ham F12 containing 2% of Ultrocer G™ was used to attain the concentration of 1×10^6 cells/ml. Thus formed suspension was dispensed in each well of a 96-well plate by 200 μl. The plate was incubated in the atmosphere composed of 5% CO2 and 95% air at 37° C. for three days so as to attain a confluent state and then subjected to MTT assay.
The sample compound was dissolved in DMSO so as to attain a concentration of 10^-2 M and then diluted with HBSS containing 2% of Ultrocer G™ so as to attain a final concentration of 10^-4 M. To each group, which 8 wells were used for, 10 μl of MTT reagent was added immediately after 100 μl of the medium in each well was exchanged for same volume of the resulting solution of the sample compound. After being incubated in an atmosphere composed of 5% CO2 and 95% air at 37° C. for 4 hours, thus formed solution was centrifuged and then its supernatant was discarded. Subsequently, 100 μl of 100% ethanol was added to the residue so as to dissolve MTT formazan. Then, the absorbance (OD: 570 to 630) was measured by a microplate reader. This method utilizes a phenomenon in which MTT is changed to MTT formazan only by mitochondria of living cells so as to change color.
The cell damaging or cell protecting effect of the sample compound at the final concentration of 10^-4 M was expressed as cell damaging rate (%) as follows:
cell damaging rate (%)={1-(absorbance in sample group/absorbance in control group)}×100
Accordingly, the smaller value is better in the cell damaging rate.

[2] = tested on: histamine-stimulated gastric acid secretion (pylorus-ligated rats); assay: VOL, TAO: Acid Secretion Inhibition Test in vivo; parameters: species or system Male Crj:Donryu rats; settings: rat, 100 mg/kg orally, histamine 30 mg/kg s.c.
Procedure: VOL, TAO: Acid Secretion Inhibition Test in vivo
Inhibitory effect on acid secretion in vivo is confirmed.
Male Crj:Donryu rats (7-week-old) were fasted overnight but allowed free access to water. In each group, 8 to 10 of these rats were used under urethane anesthesia (1.25 g/kg). The sample compound dissolved or suspended in an aqueous solution of 0.5% sodium carboxymethylcellulose or 0.05% Tween 80 was orally administered (100 mg/10 ml/kg). 30 minutes later, the abdomen of each was incised and the pylorus was ligated. 30 minutes after the ligation, 30 mg/kg of histamine dissolved in physiological saline was subcutaneously administered and, 3 hours thereafter, the rat was sacrificed with carbon dioxide. Immediately thereafter, each stomach was removed and the gastric contents were collected and each volume was determined. The total acid output was determined by titration of the gastric juice with 0.1N NaOH.
With respect to the gastric juice volume (VOL) and the total acid output (TAO), the effects obtained when 100 mg/kg of the sample compound had been administered were expressed as their respective inhibitory rates (%) as follows:
each inhibitory rate (%) {1-(value in sample group/value in control group)}×100

CC(C)c1ccc(C(=O)Nc2nnc(SCCN(C(C)C)C(C)C)s2)cc1 [Example 2, 2-(4-isopropylbenzoyl)amino-5-diisopropylaminoethylthio-1,3,4-thiadiazole]
AT: toxicity at the single dose (5 levels) (Slc:ICR mice): 5
MTT: cell damaging rate [1]: -77%

CCN(CC)CCSc1nnc(NC(=O)c2ccc(OC/C=C(\C)CCC=C(C)C)cc2)s1 [Example 10, 2-(4-geranyloxybenzoyl)amino-5-diethylaminoethylthio-1,3,4-thiadiazole]
TAO: total acid output inhibitory rate [2]: 44%
VOL: gastric juice volume inhibitory rate [2]: 36%
AT: toxicity at the single dose (5 levels) (Slc:ICR mice): 5

CC(C)=CCC/C(C)=C/COc1ccc(C(=O)Nc2nnc(SCCN3CCCCC3)s2)cc1 [Example 12, 2-(4-geranyloxybenzoyl)amino-5-piperidinoethylthio-1,3,4-thiadiazole]
AT: toxicity at the single dose (5 levels) (Slc:ICR mice): 5

CC(C)=CCC/C(C)=C/COc1ccc(C(=O)Nc2nnc(SCc3ccccn3)s2)cc1 [Example 14, 2-(4-geranyloxybenzoyl)amino-5-(2-pyridylmethyl)thio-1,3,4-thiadiazole]
AT: toxicity at the single dose (5 levels) (Slc:ICR mice): 5

CCSc1nnc(NC(=O)c2ccc(OC/C=C(\C)CCC=C(C)C)cc2)s1 [Example 15, 2-(4-geranyloxybenzoyl)amino-5-ethylthio-1,3,4-thiadiazole]
TAO: total acid output inhibitory rate [2]: 19%
VOL: gastric juice volume inhibitory rate [2]: 10%
AT: toxicity at the single dose (5 levels) (Slc:ICR mice): 5
